Measured values published in patent US11390604B2 (Hoffmann-La Roche Inc., priority 2019, dated 2022).
Structures can show the parent of a compound that is named as a salt.

The molecules below were run on Acinetobacter baumannii ATCC 17961 (assay: Antimicrobial susceptibility testing: 90% growth inhibitory concentration (IC90) determination). Settings: ATCC17961, Acinetobacter baumannii ATCC 17961, Iso-Sensitest broth, read-out: ATCC 17961 IC90.
Type: cell-based
Method in brief: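 Growth was followed kinetically by OD600 at 20-min intervals for 16 h at 35±2 °C, with ~5×10^5 CFU/ml in Iso-Sensitest broth. Compounds were tested as twofold dilutions (e.g. 50–0.097 μM final). The concentration giving 90% inhibition of log-phase growth was reported.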

| SMILES | IC90 |
| --- | --- |
| Cn1c(-c2cn(C3CC3(F)F)nc2C(F)(F)F)cnc1C(=O)Nc1ccc(C(=O)N2C3CCC2CNC3)c(Cl)c1 (stereo not shown) [Example 268, N-(4-(3,8-diazabicyclo[3.2.1]octane-8-carbonyl)-3-chlorophenyl)-5-(1-(2,2-difluorocyclopropyl)-3-(trifluoromethyl)-1H-pyrazol-4-yl)-1-methyl-1H-imidazole-2-carboxamide formate] | 332 nM |
| Cn1c(-c2cn(CC#N)nc2C(F)(F)F)cnc1C(=O)Nc1ccc(C(=O)N[C@H]2C[C@@H](NC(=O)[C@H]3C[C@H](N)C3)C2)c(Cl)c1 [Example 269, N-[4-[[3-[(3-aminocyclobutanecarbonyl)ami-no]cyclobutyl]carbamoyl]-3-chloro-phenyl]-5-[1-(cyanomethyl)-3-(trifluoromethyl)pyrazol-4-yl]-1-methyl-imidazole-2-carboxamide; formic acid] | 333 nM |
| Cn1c(-c2cn(C3CC3)nc2C(F)(F)F)cnc1C(=O)Nc1ccc(C(=O)N2CCN(C(=O)C(O)CN)CC2)c(Cl)c1 (stereo not shown) [Example 270, N-[4-[4-(3-amino-2-hydroxypropanoyl)piperazine-1-carbonyl]-3-chlorophenyl]-5-[1-cyclopropyl-3-(trifluoromethyl)pyrazol-4-yl]-1-methylimidazole-2-carboxamide;hydrochloride] | 333 nM |
| Cn1c(-c2cn(CC(F)F)nc2C(F)(F)F)cnc1C(=O)Nc1ccc(C(=O)N2CCN(C(=O)N[C@H]3C[C@@H](N)C3)CC2)c(F)c1 [Example 272, rac-N-((1s,3s)-3-aminocyclobutyl)-4-(4-(5-(1-(2,2-difluoroethyl)-3-(trifluoromethyl)-1H-pyrazol-4-yl)-1-methyl-1H-imidazole-2-carboxamido)-2-fluorobenzoyl)piperazine-1-carboxamide] | 335 nM |
| Cn1c(-c2cn(C3CC3)nc2C(F)(F)F)cnc1C(=O)Nc1ccc(C(=O)N2CCN(C(=O)[C@H]3CCCCN3)CC2)c(Cl)c1 [Example 273, (R)-N-(3-chloro-4-(4-(piperidine-2-carbonyl)piperazine-1-carbonyl)phenyl)-5-(1-cyclopropyl-3-(trifluoromethyl)-1H-pyrazol-4-yl)-1-methyl-1H-imidazole-2-carboxamide hydrochloride] | 336 nM |
| Cn1c(-c2cn(C3CCCC3)nc2C(F)(F)F)cnc1C(=O)Nc1ccc(C(=O)N2CCN(C(=O)C3CCNCC3)CC2)c(Cl)c1 [Example 274, N-(3-chloro-4-(4-(piperidine-4-carbonyl)piperazine-1-carbonyl)phenyl)-5-(1-cyclopentyl-3-(trifluoromethyl)-1H-pyrazol-4-yl)-1-methyl-1H-imidazole-2-carboxamide hydrochloride] | 338 nM |
| Cn1c(-c2cn(CC#N)nc2C(F)(F)F)cnc1C(=O)Nc1ccc(C(=O)N[C@H]2C[C@@H](NC(=O)N[C@@H]3CC[C@H](N)C3)C2)c(Cl)c1 [Example 275, N-[4-[[3-[[(1R,3S)-3-aminocyclopentyl]carbamoylami-no]cyclobutyl]carbamoyl]-3-chloro-phenyl]-5-[1-(cyanomethyl)-3-(trifluoromethyl)pyrazol-4-yl]-1-methyl-imidazole-2-carboxamide; formic acid] | 341 nM |
| Cn1c(-c2cn(CC3CCC3)nc2C(F)(F)F)cnc1C(=O)Nc1ccc(C(=O)N2CCN(C(=O)[C@H]3C[C@H](N)C3)CC2)c(Cl)c1 [Example 276, rac-N-(4-(4-((1r,3r)-3-aminocyclobutane-1-carbonyl)piperazine-1-carbonyl)-3-chlorophenyl)-5-(1-(cyclobutylmethyl)-3-(trifluoromethyl)-1H-pyrazol-4-yl)-1-methyl-1H-imidazole-2-carboxamide hydrochloride] | 343 nM |
| Cn1c(-c2cn(C3CC3)nc2C(F)(F)F)cnc1C(=O)Nc1ccc(C(=O)N2CCCC(CN)C2)c(Cl)c1 (stereo not shown) [Example 277, N-[4-[3-(aminomethyl)piperidine-1-carbonyl]-3-chlorophenyl]-5-[1-cyclopropyl-3-(trifluoromethyl)pyrazol-4-yl]-1-methylimidazole-2-carboxamide;hydrochloride] | 343 nM |
| C[C@H](N)C(=O)N1CCN(C(=O)c2ccc(NC(=O)c3ncc(-c4cn(CC5CCC5)nc4C(F)(F)F)n3C)cc2Cl)CC1 [Example 278, N-(4-(4-(L-alanyl)piperazine-1-carbonyl)-3-chlorophenyl)-5-(1-(cyclobutylmethyl)-3-(trifluoromethyl)-1H-pyrazol-4-yl)-1-methyl-1H-imidazole-2-carboxamide hydrochloride] | 344 nM |
| Cn1c(-c2cn(CC3CCC3)nc2C(F)(F)F)cnc1C(=O)Nc1ccc(C(=O)N2CCN(C(=O)C3CCN3)CC2)c(Cl)c1 (stereo not shown) [Example 281, N-(4-(4-(azetidine-2-carbonyl)piperazine-1-carbonyl)-3-chlorophenyl)-5-(1-(cyclobutylmethyl)-3-(trifluoromethyl)-1H-pyrazol-4-yl)-1-methyl-1H-imidazole-2-carboxamide hydrochloride] | 348 nM |
| Cn1c(-c2cn(CC(F)F)nc2C(F)(F)F)cnc1C(=O)Nc1ccc(S(=O)(=O)N2CCN(C(=O)CN)CC2)cc1 [Example 282, 5-(1-(2,2-difluoroethyl)-3-(trifluoromethyl)-1H-pyrazol-4-yl)-N-(4-((4-glycylpiperazin-1-yl)sulfonyl)phenyl)-1-methyl-1H-imidazole-2-carboxamide formate] | 348 nM |
| CCn1cc(-c2cnc(C(=O)Nc3ccc(C(=O)NCCCCCCN)c(Br)c3)n2C)c(C(F)(F)F)n1 [Example 284, N-(4-((6-aminohexyl)carbamoyl)-3-bromophenyl)-5-(1-ethyl-3-(trifluoromethyl)-1H-pyrazol-4-yl)-1-methyl-1H-imidazole-2-carboxamide hydrochloride] | 350 nM |
| Cn1c(-c2cn(C3CC3)nc2C(F)(F)F)cnc1C(=O)Nc1ccc(C(=O)N2CCN(C(=O)[C@@H](N)CCCN)CC2)c(Cl)c1 [Example 285, (S)-N-(3-chloro-4-(4-(2,5-diaminopentanoyl)piperazine-1-carbonyl)phenyl)-5-(1-cyclopropyl-3-(trifluoromethyl)-1H-pyrazol-4-yl)-1-methyl-1H-imidazole-2-carboxamide dihydrochloride] | 351 nM |
| Cn1c(-c2cn(C3CC3)nc2C(F)(F)F)cnc1C(=O)Nc1ccc(C(=O)N2CCN(C(=O)C3CNCC(O)C3)CC2)c(Cl)c1 (stereo not shown) [Example 286, N-[3-chloro-4-[4-(5-hydroxypiperidine-3-carbonyl)piperazine-1-carbonyl]phenyl]-5-[1-cyclopropyl-3-(trifluoromethyl)pyrazol-4-yl]-1-methylimidazole-2-carboxamide;hydrochloride] | 351 nM |
| Cn1c(-c2cn(C3CC3)nc2C(F)(F)F)cnc1C(=O)Nc1ccc(C(=O)N2CCN(C(=O)[C@@H]3CCC[C@@H](N)C3)CC2)c(Cl)c1 [Example 287, N-(4-(4-((1R,3R)-3-aminocyclohexane-1-carbonyl)piperazine-1-carbonyl)-3-chlorophenyl)-5-(1-cyclopropyl-3-(trifluoromethyl)-1H-pyrazol-4-yl)-1-methyl-1H-imidazole-2-carboxamide hydrochloride] | 352 nM |
| Cn1c(-c2cn(C3CC3)nc2C(F)(F)F)cnc1C(=O)Nc1ccc(C(=O)NC[C@H]2CC[C@H](N)CC2)c(Cl)c1 [Example 289, rac-N-(4-((((1r,4r)-4-aminocyclohexyl)methyl)carba-moyl)-3-chlorophenyl)-5-(1-cyclopropyl-3-(trifluoromethyl)-1H-pyrazol-4-yl)-1-methyl-1H-imidazole-2-carboxamide hydrochloride] | 354 nM |
| Cn1c(-c2cn(CC(F)F)nc2C(F)(F)F)cnc1C(=O)Nc1ccc(C(=O)N2CCN(CCN)CC2)c(Cl)c1 [Example 290, N-(4-(4-(2-aminoethyl)piperazine-1-carbonyl)-3-chlorophenyl)-5-(1-(2,2-difluoroethyl)-3-(trifluoromethyl)-1H-pyrazol-4-yl)-1-methyl-1H-imidazole-2-carboxamide formate] | 358 nM |
| Cc1cc(NC(=O)c2ncc(-c3cn(CC#N)nc3C(F)(F)F)n2C)ccc1S(C)(=O)=NCCCN (stereo not shown) [Example 291, N-[4-[N-(3-aminopropyl)-S-methyl-sulfonimidoyl]-3-methyl-phenyl]-5-[1-(cyanomethyl)-3-(trifluoromethyl)pyrazol-4-yl]-1-methyl-imidazole-2-carboxamide; formic acid] | 359 nM |
| Cn1c(-c2cn(CC3CCC3)nc2C(F)(F)F)cnc1C(=O)Nc1ccc(C(=O)N2CCN(C(=O)[C@H]3C[C@@H](N)C3)CC2)c(Cl)c1 [Example 295, rac-N-(4-(4-((1s,3s)-3-aminocyclobutane-1-carbonyl)piperazine-1-carbonyl)-3-chlorophenyl)-5-(1-(cyclobutylmethyl)-3-(trifluoromethyl)-1H-pyrazol-4-yl)-1-methyl-1H-imidazole-2-carboxamide hydrochloride] | 364 nM |

Same assay, conditions: Acinetobacter baumannii, ATCC17961, read-out: ATCC 17961 IC90, Acinetobacter baumannii ATCC 17961, Iso-Sensitest broth

| SMILES | IC90 |
| --- | --- |
| CC(C)Cn1cc(-c2cnc(C(=O)Nc3ccc(C(=O)N4CCN(C(=O)N[C@H]5C[C@@H](N)C5)CC4)c(Cl)c3)n2C)c(C(F)(F)F)n1 [Example 292, rac-N-((1s,3s)-3-aminocyclobutyl)-4-(2-chloro-4-(5-(1-isobutyl-3-(trifluoromethyl)-1H-pyrazol-4-yl)-1-methyl-1H-imidazole-2-carboxamido)benzoyl)piperazine-1-carboxamide hydrochloride] | 361 nM |
| Cn1c(-c2cn(CC3CC(F)(F)C3)nc2C(F)(F)F)cnc1C(=O)Nc1ccc(C(=O)N2CCN(C(=O)N[C@H]3C[C@@H](N)C3)CC2)c(Cl)c1 [Example 293, rac-N-((1s,3s)-3-aminocyclobutyl)-4-(2-chloro-4-(5-(1-((3,3-difluorocyclobutypmethyl)-3-(trifluoromethyl)-1H-pyrazol-4-yl)-1-methyl-1H-imidazole-2-carboxamido)benzoyl)piperazine-1-carboxamide hydrochloride] | 363 nM |
